Experimental data: patent publication US20080014614A1, “Labeling of rapamycin using rapamycin-specific methylases” (Wyeth, priority 2004, published 2008)

System: RapM methylase
Assay: In vitro methylation of desmethyl-rapamycin substrates by recombinant RapM methylase crude extract, HPLC analysis
Assay type: biochemical, Streptomyces hygroscopicus
Conditions: recombinant E. coli cell extract, SAM as methyl donor, phosphate buffer pH 7.5, HPLC chromatograms
Protocol: The RapI, RapM and RapQ proteins were then expressed in E. coli strain BL21(DE3) cells using the Novagen pET24 inducible plasmid expression vector. In this vector, cloned genes are expressed from a T7 promoter by T7 RNA polymerase, and expression is activated by IPTG addition.
For crude extracts of the cloned methylase proteins, 25 mL cultures of induced cells were collected by centrifugation and the pellets frozen. The pellets were resuspended in 10 mL 50 mM potassium phosphate buffer, pH 7.5, containing 1 mM β-mercaptoethanol. Thereafter, lysozyme was added to a final concentration of 100 μg/ml and Benzonase™ nuclease was added (1 μL/mL cells). Cells were sonicated for 1 to 2 min on ice and cell debris was removed by centrifugation at ˜30,000×g, 4° C. for 15 min. Supernatants were adjusted to ˜10% glycerol prior to freezing at −70° C.
Approximately 65 μL of crude methylase extract was added to a reaction containing 3 μL of 1 mg/mL 7-desmethyl- rapamycin (7-dmr) solution, 5 μL of 4 mM SAM, 4 μL of 0.1 M MgSO4, and 23 μL of a 0.5 M phosphate buffer, adjusted to pH 7.5. Methylation reactions using the recombinant cell extracts were carried out as described above, except that 50 μL of extract and 38 μL of buffer were used.

| Compound | Conversion of the desmethyl-rapamycin substrate to rapamycin by RapM methylase (substrate specificity) |
| --- | --- |
| 32-O-desmethyl-rapamycin [32-dmr] | did not modify |
| CO[C@@H]1C[C@H](C[C@@H](C)[C@@H]2CC(=O)[C@H](C)/C=C(\C)[C@@H](O)[C@@H](OC)C(=O)[C@H](C)C[C@H](C)\C=C/C=C/C=C(\C)[C@@H](O)C[C@@H]3CC[C@@H](C)[C@@](O)(O3)C(=O)C(=O)N3CCCC[C@H]3C(=O)O2)CC[C@H]1O [7-dmr, 7-O-desmethyl-rapamycin] | generated rapamycin |
